Literature values in US20040253138A1, “Plasmon enhanced body treatment and bacterial management” (American Environmental Systems, Inc., priority 2003, published 2004).
Read-outs that look alike come from different tables or passages of the source.

Test system: E. coli (E. coli-B (SR-9) and E. coli K-12)
Conditions: one hour exposure

SMILES | logs of inactivation (30 ppb silver) [logs] | logs of inactivation (30 ppm hydrogen peroxide) [logs]
[Ag+] [silver] | 2.87 | 
OO [hydrogen peroxide] |  | 0.65
